pIC50: −log10 of the molar value.
These compounds were tested against T1, Tau-Synaptogyrin3 interaction (Homo sapiens, UniProt O43761+P10636) (assay: Cell-based split luciferase (NanoBit) protein complementary assay for Tau-Synaptogyrin3 interaction in stable cell line HEK293T-TK252-1E2). Details: HEK293T-TK252-1E2 cells, 48 hrs compound treatment, L/F value (luciferase activity/fluorescent intensity) compared to DMSO control.
T1 construct: expressed in transfected cells
Procedure: Live cell luciferase assay: Live cell luciferase activity was measured using NanoGlo® Live Cell Assay System (Cat# N2012. Promega, WI, USA), according to manufacturer's instruction. All microplate-based measurement was performed with BioTek Synergy H1 (Agilent. CA, USA).
For producing HEK293T-TK252 stable cell line for screening, BglII-linearized pTK252 was transfected to HEK293T cells. After 24 hrs transfection, the transfected cells were cultured in the culture media containing 1 µg/ml puromycin (10 mM in DMSO, Cat# J61278/ Alfa Aesar. ThermoFisher Korea, Seoul, Korea) for 9 days. Regular media change was performed in every 3 days with fresh puromycin of indicating concentration during the whole selection period. The selected cells were trypsinized and diluted to 5 cells/ml and seeded to 4x 96 well cell culture plates (100 µl/well), and cultured with the cell culture media containing 1 µg/ml puromycin for 11 days. 18 wells that contained only GFP-positive cells were selected for expansion, and cultured with the cell culture media containing 0.1-0.2 µg/ml puromycin for 14 days. 10 clones were discarded during the expansion due to emerging of non-GFP cells, and 8 clones were validated. The selected clone (1E2) was cultured with the cell culture media containing 0.5 µg/ml puromycin for further experiments.
3 µmol of 1,728 compounds were purchased from Otava Chemicals MB (Vilniaus, Lithuania), dissolved into 300 µl DMSO (10 mM) and stored at -80°C. 4x10^4 HEK293T-TK252-1E2 cells were seeded with 100 µl of the cell culture media into 96 white well cell culture plates (Cat# 30196. SPL, Seoul, Korea), 48 hrs prior to compound treatment. For 10 µM compound treatment, 10 mM compound stock was diluted to 50 µM with the cell culture media, and 25 µl of the diluted compound was added to the designated wells of the 96 well plates. For dose-response experiments, the amount of compounds for dilution was adjusted to fit the volume indicated above. After 48 hrs compound treatment, the cells were washed once with OptiMEM and live cell luciferase activity, fluorescent intensity and fluorescence area scan was measured.
1,728 compounds were treated at 10 µM to HEK293T-TK252-1E2 cells and incubated for 48 hrs. […] Single wash step with culture media without FBS was included before measurement to discard dead cells and to remove FBS that affects luciferase assay. […] Fluorescent intensity was taken for normalization, which is expected to be proportion to the cell number at the measuring point. L/F value which is luciferase activity normalized with fluorescent intensity (L/F = Luciferase activity/ Fluorescent intensity) was calculated for all measurements and compared to L/F value of DMSO controls to calculated the size of inhibitory effect. […] Fluorescence area scan (FA) performed right after luciferase activity and fluorescent intensity measurement, to validate total remaining fluorescent cells in a well as a proxy to the cellular toxicity. FA value was in proportion to WST assay results (data not shown), and average CV of triplicates of all measurements was 0.04.
61 compounds were further tested for dose-response profile, based on inhibitory effect that was measured by L/F value (<60%) and FA-based cell viability (>90%) at 10 µM compared to DMSO control. 10 compounds were considered as hit compounds through three times of reproduction.

T1 sequence (P10636 1-441 isoform P10636-8): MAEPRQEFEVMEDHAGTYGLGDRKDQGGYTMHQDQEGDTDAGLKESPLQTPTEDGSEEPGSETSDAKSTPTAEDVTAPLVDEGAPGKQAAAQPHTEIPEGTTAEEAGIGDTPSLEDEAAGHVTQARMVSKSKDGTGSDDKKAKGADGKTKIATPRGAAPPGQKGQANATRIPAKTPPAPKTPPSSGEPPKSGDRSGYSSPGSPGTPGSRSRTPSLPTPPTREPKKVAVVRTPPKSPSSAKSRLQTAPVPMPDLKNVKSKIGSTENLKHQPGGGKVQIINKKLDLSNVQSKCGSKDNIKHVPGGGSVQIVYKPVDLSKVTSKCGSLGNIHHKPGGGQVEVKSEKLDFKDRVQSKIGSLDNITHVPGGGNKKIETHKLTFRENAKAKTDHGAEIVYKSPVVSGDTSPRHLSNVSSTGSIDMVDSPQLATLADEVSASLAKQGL
T1 sequence (O43761 whole entry): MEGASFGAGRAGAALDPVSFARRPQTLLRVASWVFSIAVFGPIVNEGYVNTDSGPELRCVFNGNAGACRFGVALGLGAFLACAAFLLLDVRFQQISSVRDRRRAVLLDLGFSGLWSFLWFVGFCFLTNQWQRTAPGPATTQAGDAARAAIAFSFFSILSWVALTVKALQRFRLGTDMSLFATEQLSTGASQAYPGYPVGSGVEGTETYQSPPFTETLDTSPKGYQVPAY

SMILES	pIC50
O=C(c1ccccc1)N1CCc2[nH]c3ccc(-c4cccnc4)cc3c2C1 [Formula 42, Phenyl(8-(pyridin-3-yl)-1,3,4,5-tetrahydro-2H-pyrido[4,3-b]indol-2-yl)methanone]	4.60 to 4.92
Cc1cnc(C(=O)N2CCc3[nH]c4ccc(-c5ccccc5)cc4c3C2)cn1 [Formula 6, (5-methylpyrazin-2-yl)(8-phenyl-1,3,4,5-tetrahydro-2H-pyrido[4,3-b]indol-2-yl)methanone]	4.60 to 4.92
O=C(c1cnccn1)N1CCc2[nH]c3ccc(-c4ccccc4)cc3c2C1 [Formula 7, (8-phenyl-1,3,4,5-tetrahydro-2H-pyrido[4,3-b]indol-2-yl)(pyrazin-2-yl)methanone]	4.92 to 5.52
Cc1ccc(-c2ccc3[nH]c4c(c3c2)CN(C(=O)c2ccnc(C)c2)CC4)cc1 [Formula 41, (2-methylpyridin-4-yl)(8-(p-tolyl)-1,3,4,5-tetrahydro-2H-pyrido[4,3-b]indol-2-yl)methanone]	4.92 to 5.52
Cc1ccccc1-c1ccc2[nH]c3c(c2c1)CN(C(=O)c1ccncc1)CC3 [Formula 21, Pyridin-4-yl(8-(o-tolyl)-1,3,4,5-tetrahydro-2H-pyrido[4,3-b]indol-2-yl)methanone]	4.92 to 5.52
Cc1ccccc1-c1ccc2[nH]c3c(c2c1)CN(C(=O)c1ccccc1)CC3 [Formula 23, Phenyl(8-(o-tolyl)-1,3,4,5-tetrahydro-2H-pyrido[4,3-b]indol-2-yl)methanone]	4.92 to 5.52
Cc1ccc(C(=O)N2CCc3[nH]c4ccc(-c5cccc(C#N)c5)cc4c3C2)cn1 [Formula 57, 3-(2-(6-Methylnicotinoyl)-2,3,4,5-tetrahydro-1H-pyrido[4,3-b]indol-8-yl)benzonitrile]	4.92 to 5.52
Cc1ccc(-c2ccc3c(c2)c2c(n3C)CCN(C(=O)c3ccccc3)C2)cc1 [Formula 43, (5-methyl-8-(p-tolyl)-1,3,4,5-tetrahydro-2H-pyrido[4,3-b]indol-2-yl)(phenyl)methanone]	4.92 to 5.52
Cc1ccccc1-c1ccc2[nH]c3c(c2c1)CN(C(=O)c1cccc2c1ccn2C)CC3 [Formula 24, (1-methyl-1H-indol-4-yl)(8-(o-tolyl)-1,3,4,5-tetrahydro-2H-pyrido[4,3-b]indol-2-yl)methanone]	4.92 to 5.52
O=C(c1ccc(C(F)(F)F)cc1)N1CCc2[nH]c3ccc(-c4ccccc4)cc3c2C1 [Formula 12, (8-phenyl-1,3,4,5-tetrahydro-2H-pyrido[4,3-b]indol-2-yl)(4-(trifluoromethyl)phenyl)methanone]	4.60 to 4.92
Cc1ccc(C(=O)N2CCc3[nH]c4ccc(-c5cccc(C#N)c5)cc4c3C2)cc1 [Formula 56, 3-(2-(4-Methylbenzoyl)-2,3,4,5-tetrahydro-1H-pyrido[4,3-b]indol-8-yl)benzonitrile]	4.92 to 5.52
Cc1ccc(C(=O)N2CCc3[nH]c4ccc(-c5ccccc5C#N)cc4c3C2)cn1 [Formula 60, 2-(2-(6-Methylnicotinoyl)-2,3,4,5-tetrahydro-1H-pyrido[4,3-b]indol-8-yl)benzonitrile]	4.92 to 5.52
Cc1ccc(C(=O)N2CCc3[nH]c4ccc(-c5ccc(C#N)cc5)cc4c3C2)cn1 [Formula 54]	4.92 to 5.52
O=C(N1CCOCC1)N1CCc2[nH]c3ccc(-c4ccccc4)cc3c2C1 [Formula 19, Morpholino(8-phenyl-1,3,4,5-tetrahydro-2H-pyrido[4,3-b]indol-2-yl)methanone]	4.92 to 5.52

The next lines start with the values.

pIC50	SMILES
> 5.52	Nc1ccc(-c2ccc3[nH]c4c(c3c2)CN(C(=O)c2ccccc2)CC4)cc1 [Formula 72, (8-(4-Aminophenyl)-1,3,4,5-tetrahydro-2H-pyrido[4,3-b]indol-2-yl)(phenyl)methanone]
> 5.52	Cc1cccc(-c2ccc3[nH]c4c(c3c2)CN(C(=O)c2ccccc2)CC4)c1 [Formula 28, Phenyl(8-(m-tolyl)-1,3,4,5-tetrahydro-2H-pyrido[4,3-b]indol-2-yl)methanone]
> 5.52	Cc1ccc(-c2ccc3c(c2)c2c(n3C)CCN(C(=O)c3cccnc3)C2)cc1 [Formula 44, (5-methyl-8-(p-tolyl)-1,3,4,5-tetrahydro-2H-pyrido[4,3-b]indol-2-yl)(pyridin-3-yl)methanone]
4.92 to 5.52	O=C(c1cccnc1)N1CCc2[nH]c3ccc(-c4ccccc4)cc3c2C1 [Formula 2, (8-phenyl-1,3,4,5-tetrahydro-2H-pyrido[4,3-b]indol-2-yl)(pyridin-3-yl)methanone]
> 5.52	O=C(c1ccccc1)N1CCc2[nH]c3ccc(-c4ccc(F)cc4)cc3c2C1 [Formula 64, (8-(4-fluorophenyl)-1,3,4,5-tetrahydro-2H-pyrido[4,3-b]indol-2-yl)(phenyl)methanone]
4.92 to 5.52	N#Cc1ccc(-c2ccc3[nH]c4c(c3c2)CN(C(=O)c2cccnc2)CC4)cc1 [Formula 51]
4.92 to 5.52	Cc1cccc(C(=O)N2CCc3[nH]c4ccc(-c5ccccc5)cc4c3C2)c1 [Formula 15, (8-phenyl-1,3,4,5-tetrahydro-2H-pyrido[4,3-b]indol-2-yl)(m-tolyl)methanone]
4.92 to 5.52	O=C(c1ccccc1)N1CCc2[nH]c3ccc(Nc4ccc(Cl)cc4)cc3c2C1 [Formula 33, (8-((4-chlorophenyl)amino)-1,3,4,5-tetrahydro-2H-pyrido[4,3-b]indol-2-yl)(phenyl)methanone]
4.92 to 5.52	CN(C)c1ccc(-c2ccc3[nH]c4c(c3c2)CN(C(=O)c2ccccc2)CC4)cc1 [Formula 73, (8-(4-(Dimethylamino)phenyl)-1,3,4,5-tetrahydro-2H-pyrido[4,3-b]indol-2-yl)(phenyl)methanone]
4.92 to 5.52	O=S(=O)(c1cccnc1)N1CCc2[nH]c3cc(-c4ccccc4)ccc3c2C1 [Formula 34, 7-phenyl-2-(pyridin-3-ylsulfonyl)-2,3,4,5-tetrahydro-1H-pyrido[4,3-b]indole]
4.92 to 5.52	COc1ccc(-c2ccc3[nH]c4c(c3c2)CN(C(=O)c2ccccc2)CC4)cc1 [Formula 62, (8-(4-Methoxyphenyl)-1,3,4,5-tetrahydro-2H-pyrido[4,3-b]indol-2-yl)(phenyl)methanone]
4.92 to 5.52	COc1ccc(C(=O)N2CCc3[nH]c4ccc(-c5ccc(C)cc5)cc4c3C2)cc1 [Formula 39, (4-methoxyphenyl)(8-(p-tolyl)-1,3,4,5-tetrahydro-2H-pyrido[4,3-b]indol-2-yl)methanone]
> 5.52	Cc1ccc(-c2ccc3[nH]c4c(c3c2)CN(C(=O)c2ccc(C)nc2)CC4)cc1 [Formula 40, (6-methylpyridin-3-yl)(8-(p-tolyl)-1,3,4,5-tetrahydro-2H-pyrido[4,3-b]indol-2-yl)methanone]
> 5.52	O=C(c1cccnc1)N1CCc2[nH]c3ccc(Nc4ccc(Cl)cc4)cc3c2C1 [Formula 32, (8-((4-chlorophenyl)amino)-1,3,4,5-tetrahydro-2H-pyrido[4,3-b]indol-2-yl)(pyridin-3-yl)methanone]
4.92 to 5.52	CCn1c2c(c3cc(-c4ccc(C)cc4)ccc31)CN(C(=O)c1ccccc1)CC2 [Formula 45, (5-ethyl-8-(p-tolyl)-1,3,4,5-tetrahydro-2H-pyrido[4,3-b]indol-2-yl)(phenyl)methanone]
4.92 to 5.52	Cc1ccc(-c2ccc3[nH]c4c(c3c2)CN(C(=O)C2CCCCC2)CC4)cc1 [Formula 36, Cyclohexyl(8-(p-tolyl)-1,3,4,5-tetrahydro-2H-pyrido[4,3-b]indol-2-yl)methanone]
> 5.52	Cc1ccc(C(=O)N2CCc3[nH]c4ccc(-c5ccccc5)cc4c3C2)cc1 [Formula 14, (8-phenyl-1,3,4,5-tetrahydro-2H-pyrido[4,3-b]indol-2-yl)(p-tolyl)methanone]
> 5.52	Cc1ccc(-c2ccc3[nH]c4c(c3c2)CN(C(=O)c2ccccc2)CC4)cc1 [Formula 30, Phenyl(8-(p-tolyl)-1,3,4,5-tetrahydro-2H-pyrido[4,3-b]indol-2-yl)methanone]
> 5.52	O=C(c1ccccc1)N1CCc2[nH]c3ccc(-c4ccc([N+](=O)[O-])cc4)cc3c2C1 [Formula 71, (8-(4-nitrophenyl)-1,3,4,5-tetrahydro-2H-pyrido[4,3-b]indol-2-yl)(phenyl)methanone]

From patent publication EP4682146A1, “COMPOSITION INCLUDING NOVEL PYRIDOINDOLE DERIVATIVE COMPOUND AS ACTIVE INGREDIENT FOR PREVENTION OR TREATMENT OF NEURODEGENERATIVE DISEASES” (Neurotarge Co., Ltd., priority 2023, dated 2024)
